Reference: article PMC11457795 (Cell chemical biology, 2024)

Biological target: PfMAGL (Plasmodium falciparum, UniProt Q8IJ22)
Experiment: fluorogenic 4-methylumbelliferyl caprylate hydrolysis assay, […] min preincubation
Assay type: biochemical

## C#CCCCCP(=O)(OCC)Oc1ccc(S(=O)(=O)F)cc1 (racemic) [compound 2, ethyl (4-(fluorosulfonyl)phenyl) hex-5-yn-1-ylphosphonate]
  IC50: 20 nM
